The numbers were not newly measured in patent US20110293528A1, “ENEMA PREPARATIONS AND THEIR USE” (PHOTOCURE ASA, priority 2008, published 2011), which cites them from elsewhere.

Molecules are shown by their SMILES.

Data set [1] has as its system rectal adenoma or rectal cancer. The note with it: 3.2 mmol per litre HAL, instillation time 30-45 minutes, rest time 30 minutes.
Data set [2] relates to pre-malignant conditions in the colon (polyps). The following applies: enemas of 200 mg HAL in 500 ml or 1000 ml phosphate buffered saline (1.6 and 0.8 mmol per litre).

As to `CCCCCCOC(=O)CCC(=O)CN` [5-aminolevulinic acid hexyl ester], the “result of photodynamic detection” value in data set [1] is listed as “satisfactory results”. In data set [2], the “more polyps detected by PDD than when using white light endoscopic imaging” value was 28%.
